Data set [1] addresses T1, 20S proteasome in K562 cell lysates, C-L activity (Homo sapiens, UniProt P28072).
T1 sequence (P28072 35-239 limits assumed): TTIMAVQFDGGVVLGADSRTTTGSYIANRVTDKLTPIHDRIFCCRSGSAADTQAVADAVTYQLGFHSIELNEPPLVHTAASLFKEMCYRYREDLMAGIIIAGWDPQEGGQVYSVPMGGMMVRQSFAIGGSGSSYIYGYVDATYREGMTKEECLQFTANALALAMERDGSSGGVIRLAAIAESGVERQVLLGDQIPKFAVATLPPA
T1 sequence (Q99436 44-277 partner): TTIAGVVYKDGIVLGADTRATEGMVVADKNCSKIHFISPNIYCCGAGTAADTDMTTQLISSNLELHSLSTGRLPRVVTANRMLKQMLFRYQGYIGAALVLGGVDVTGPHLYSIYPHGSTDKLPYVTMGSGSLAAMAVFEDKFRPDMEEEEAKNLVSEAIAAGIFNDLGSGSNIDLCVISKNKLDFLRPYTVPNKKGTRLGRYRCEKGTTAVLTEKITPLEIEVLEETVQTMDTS
As to the kind of experiment: Proteasome inhibition assay in cell lysates, K562, C-L. The conditions noted are these: for inhibition at 10 µM: read-out: percentage of proteasome inhibition, C-L, cell lysates K562, at 10 µM; for inhibition at 100 µM: read-out: percentage of proteasome inhibition, C-L, cell lysates K562, at 100 µM.
Protocol: Cells were obtained from several cultured cell lines: Jurkat, K562, HT-29, and HCT116. Pellets with 20 × 10^6 cells were prepared and washed with cold sterile phosphate buffered saline (PBS), 1×, pH 7.4 (Gibco, Thermo Fisher Scientific, Paisley, UK). The preparation of the lysates from several cell lines was performed based on the methodology described by Gavioli et al. [67]. Cells were resuspended in buffer containing 50 mM TRIS-HCl pH 7.4 (Nzytech, Lisboa, Portugal), 5 mM MgCl2 (≥98% purity, Merck, Hamburg, Germany), 1 mM DTT (Merck, Hamburg, Germany), 2 mM ATP (≥98% purity, Enzo Life Sciences Inc., Farmingdale, NY, USA), and 250 mM saccharose (Merck, Hamburg, Germany). Glass beads (Merck, Hamburg, Germany) equivalent to the volume of the cell suspension were added, and the mixture was vortexed for 2 min at 4 °C. Beads and cell debris were removed using 5 min centrifugation at 1000× g and 4 °C, followed by 20 min of centrifugation at 10,000× g at 4 °C. Cell lysates containing proteasomes were resuspended in “activity buffer” [50 mM TRIS-HCl (pH 7.4), 5 mM MgCl2, 1 mM DTT, 2 mM ATP (≥98% purity, Enzo Life Sciences Inc., Farmingdale, NY, USA), and 500 µM EDTA (≥98% purity, Merck, Hamburg, Germany)]. Protein concentration was determined using the Pierce™ BCA protocol (Thermo Fisher Scientific, Rockford, IL, USA). […] DMSO was added in an equal volume as used for the untreated compounds as a way to assess/control its influence in the assay. Untreated cells were used as control. In each well of a 96-well plate, 25 µL of lysate were seeded in duplicate with 25 µL of the compound to test; in the control, 25 µL of activity buffer were added to the 25 µL of lysate. A blank (50 µL of activity buffer) was added to the wells in quadruplicate. Cell lysates, pre-treated or not with different concentrations of the test compounds, were incubated for 30 min at 37 °C. […] Stock solutions (10 mM) of each substrate were prepared in DMSO, diluted in activity buffer, and 50 µL were added to all wells (final concentration of each substrate = 100 µM), followed by an incubation at 37 °C for 60 min. Samples fluorescence was measured at an excitation wavelength of 360 nm and emission of 465 nm; the fluorescence measures were performed using the GloMax-Multi + Detection System (Promega Corp., Madison, WI, USA). Activity was evaluated in fluorescence units, after being converted to percentage of proteasome inhibition and, whenever possible, expressed as IC50 by plotting the inhibition data of each compound at different concentrations against the log of the concentration of the inhibitor, using the GraphPad Prism software version 7. At least eight different concentrations of the test compounds were used.

For the next data set, the system named is HT-29 cells. Nature of the data set: Cell viability, MTT assay, HT-29. It is filed as cell-based, human. Particulars: 72 h; for IC50: Homo sapiens, HT-29, mean ± SD; for percentage of cell viability, MTT, HT-29: at 100 µM. The protocol: (§1) Whenever possible, additional concentrations were tested and IC50 values were determined.
(§2) Human leukemia Jurkat E6.1 T-cell line and K562-cell line were originally obtained from ATCC Collections (Manassas, VA, USA); human HT-29 and HCT116 colorectal carcinoma-cell lines were obtained from ECACC (Porton Down, Porton, UK). Cells were passaged for less than 6 months after and routinely tested for mycoplasma contamination using Mycoalert detection kit (Lonza, Basel, Switzerland). Jurkat, K562, and HT-29 cells were maintained in Roswell Park Memorial Institute (RPMI) 1640 with GlutaMAX™, supplemented with 1% antibiotic mixture (100 µg/mL streptomycin and 100 U/mL penicillin) and 10% heat-inactivated foetal bovine serum (FBS) (all from Gibco, Thermo Fisher Scientific, Paisley, UK). HCT116 cells were maintained in Dulbecco’s Modified Eagle Medium (DMEM) with GlutaMAX™, supplemented with 1% antibiotic mixture (100 µg/mL streptomycin and 100 U/mL penicillin) and 10% heat-inactivated FBS (all from Gibco, Thermo Fisher Scientific, Paisley, UK). Incubation was performed at 37 °C in a 5% CO2 atmosphere. Cells were routinely passaged every 2 or 3 days at 70–90% confluence; TrypLE Express (Gibco, Thermo Fisher Scientific, Paisley, UK) was used as dissociation agent for adherent cells. Trypan blue (Gibco, Thermo Fisher Scientific, Paisley, UK) was used to assess cell viability using the dye exclusion test.
(§3) To assess cell viability, the MTT assay was performed. Jurkat/K562/HT-29/HCT116 cell lines were seeded in triplicate (10,000 cells/well) in 96-well plates with 50 µL of complete medium and incubated at 37 °C, 5% CO2 for 24 h to allow the cells to adhere to the plate (in the case of adherent cells). […] Untreated cells seeded in triplicate were used as control. The blank was performed in triplicate with 100 µL of culture medium. The cells were incubated with the compounds, in triplicate, in 100 µL of total volume, at 37 °C, 5% CO2 for 72 h. […] In suspension cells (Jurkat), 25 µL of MTT were directly added to each well and, after 3 h 30 m of incubation, 100 µL of DMSO were added to solubilize the formazan crystals; in adherent cells (HT-29 and HCT116), the culture medium was removed, 25 µL of MTT were added to each well and, after 3 h 30 m of incubation, upon MTT removal, 100 µL of DMSO were added to solubilize the formazan crystals. After 15 min, the samples absorbance was measured at 570 nm and the percentage of cell viability was determined.
On the technique in general: Tetrazolium dyes change colour on reduction, which living cells bring about.

The subject of data set [2] is proteasome C-L active site. The conditions noted are these: literature values; ref 34 (bortezomib), 35 (ixazomib); cited from earlier work.
Data set [3] deals with proteasome CT-L active site. The conditions noted are these: literature values of known proteasome inhibitors; reference per compound; cited from earlier work.
For another data set, the system named is K562 cells. As to the kind of experiment: Cell viability, MTT assay, K562. It is filed as cell-based, human. The conditions noted are these: at 100 µM, 72 h. As for the experimental part:
as §1, §2, §3

Data set [4] has as its target T2, isolated human 20S proteasome, C-L activity (Homo sapiens, UniProt P28072).
T2 construct: human purified erythrocyte-derived 20S proteasome; purchased Enzo Life Sciences, Inc; host or cells: human erythrocytes (natural source)
As to the kind of experiment: Proteasome inhibition assay in isolated human 20S proteasomes (Proteasome-Glo), C-L activity. Type of data set: biochemical. Particulars: mean ± SD. The text has this: In this assay, the peptide substrates are bound to aminoluciferin (Suc-LLVY-AML for CT-L activity, Z-nLPnLD-AML for C-L, and Z-LRR-AML for T-L), leading the cleavage of these substrates by the proteasome to the release of free aminoluciferin, which is the substrate of the buffer-contained luciferase.
To evaluate human purified erythrocyte-derived 20S proteasome inhibitory activity of the chosen compounds, the Proteasome-Glo™ 3-substrate system (Promega Corporation, Madison, WI, USA) was employed. The Proteasome-Glo™ reagents of the three proteolytic activities were prepared according to the manufacturer’s instructions, aliquoted, and stored at either −20 °C or 4 °C, avoiding freezing–thaw cycles. […] The purified 20S proteasome (Enzo Life Sciences, Inc., Farmingdale, NY, USA) was diluted in HEPES buffer 10 mM, pH 7.4, to a concentration experimentally adjusted to the signal/noise ratio obtained with each particular lot of Proteasome-Glo™ reagent, in order to have a good compromise between sensitivity and linear response. […] All assays were performed in white-walled multiwell plates (Thermo Scientific™ Sterilin™ White Microtiter™ plates, Thermo Fisher Scientific, Paisley, UK) in duplicates. The proteasome solution (25 μL) was added to each well first, then the diluted solutions of the assayed compounds (25 μL), and lastly the Proteasome-Glo™ Reagent (50 μL). […] Reagents were added to the plate well on ice, and the plate was then transferred to the plate luminometer (SpectraMax®, Molecular Devices, LLC, San Jose, CA, USA) set at 37 °C, gently mixed for 30 s, and the measurements were immediately started in kinetic mode, with data collected every 5 min for at least 60 min.
All compounds were dissolved in DMSO at a concentration of 10 mM and stored at −20 °C or 4 °C. Solutions of the test compounds were prepared at their adequate dilutions in 10 mM HEPES buffer pH 7.6 before each experiment.
To calculate the proteasome activity over time, the value of mean relative luminescence units (RLU) of blank wells at each respective time point was subtracted, and then the ratio between mean RLU of the sample and mean RLU of the positive control wells was calculated for each time point and expressed as percentage.

Setting [5] is: at 100 µM, Table 2 legend: bortezomib 10 µM.
Setting [6] is: Table 2 legend: bortezomib 10 µM.

Several values for one entry are separate records, joined by “and”; a condition that tells them apart may be missing. Identical values can stand only once.

The source of these data is PMC10458307, “New Scaffolds of Proteasome Inhibitors: Boosting Anticancer Potential by Exploiting the Synergy of In Silico and In Vitro Methodologies” (Pharmaceuticals, 2023).

Turning to `CC(C)C[C@H](NC(=O)[C@H](Cc1ccccc1)NC(=O)c1cnccn1)B(O)O` [Bortezomib, bortezomib, reference compound], the “percentage of proteasome inhibition, C-L, cell lysates K562” value (“percentage of proteasome inhibition, C-L” below) in data set [1] (at 10 µM) is 94.99%; in data set [1] (setting [5]), 97.19% and 97%. For the same compound, the IC50 with HT-29 cells is 0.00973 µM; in data set [2] it was 0.074 µM; in data set [3] it was 7 nM.

On to `Cc1ccc2ccccc2c1CSc1ncnc2c1ncn2C1OC(CO)C(O)C1O` (centres unmarked) [Compound 1], for which, in the data set with K562 cells, the “percentage of cell viability, MTT, K562” value stood at 18%. Also, the “percentage of proteasome inhibition, C-L” value in data set [1] (setting [5]) is given as 28%. Further, the inhibition at 10 µM in data set [1] was found to be 0%. Also, the inhibition at 100 µM in data set [1] (setting [6]) was 28.2%. For the same compound, in the data set with HT-29 cells, the IC50 was 61.7 µM and the “percentage of cell viability, MTT, HT-29” value came to 23%.

Turning to `O=C1c2ccccc2C(=O)c2c(Nc3ccc(S(=O)(=O)N(CCO)CCO)cc3)ccc(O)c21` [Compound 2], in the data set on K562 cells, the “percentage of cell viability, MTT, K562” value was found to be 86.52%. Further, the IC50 in data set [4] was found to be 2.42 µM. Further, the “percentage of proteasome inhibition, C-L” value in data set [1] (setting [5]) amounted to 63%. The inhibition at 10 µM in data set [1] is 0%. Also, the inhibition at 100 µM in data set [1] (setting [6]) amounted to 63.2%. Also, the “percentage of cell viability, MTT, HT-29” value in the data set with HT-29 cells came to 65%.

The compound `Cc1ccc(/C(=N/NS(=O)(=O)c2ccc([N+](=O)[O-])cc2)Sc2cc(Cl)c(C)cc2S(N)(=O)=O)cc1` [Compound 3] came in with an IC50 in data set [4] of 51.1 µM. Also, in data set [1] (setting [5]), the “percentage of proteasome inhibition, C-L” value turned out to be 39%. Moreover, the inhibition at 10 µM in data set [1] came out at 14.2%. In addition, in data set [1] (setting [6]), the inhibition at 100 µM was 38.8%.

With `C#CCCN1CCN(c2ccc(-n3c(=O)ccc4cnc5ccc(-c6ccc(N)nc6)cc5c43)cc2C(F)(F)F)CC1` [Compound 4, 9-(6-Aminopyridin-3-yl)-1-(4-(4-(but-3-yn-1-yl)piperazin-1-yl)-3-(trifluoromethyl)phenyl)benzo[h][1,6]naphthyridin-2(1H)-one], the IC50 in data set [4] came to 41.2 µM; in the data set with HT-29 cells it was 43 µM. The “percentage of cell viability, MTT, HT-29” value in the data set with HT-29 cells stood at 34%.

Turning to `CC(C)c1nc(CN(C)C(=O)N[C@@H](CCN2CCOCC2)C(=O)N[C@H](CC[C@H](Cc2ccccc2)NC(=O)OCc2cncs2)Cc2ccccc2)cs1` [Compound 5, cobicistat, reference compound], in the data set on HT-29 cells, inhibition was half-maximal at 70.5 µM (IC50) and the “percentage of cell viability, MTT, HT-29” value came out at 25%.

By IC50 is commonly meant the midpoint of a concentration-inhibition curve. By inhibition is commonly meant the percentage by which the read-out fell short of the control.
